{
  "source": "ChEMBL document CHEMBL1158810",
  "about": "“Efficiency of foam fractionation for the enrichment of nonpolar compounds from aqueous extracts of plant materials” (J Nat Prod, 2005)",
  "data": [
    {"assay": "(§1) Octanol-water partition coefficient, log POW of the compound", "format": "physicochemical", "conditions": "not given", "values": [
      {"smiles": "COc1cc(/C=C/C(=O)CC(=O)/C=C/c2ccc(O)c(OC)c2)ccc1O", "note": "[CURCUMIN]", "logP": 1.15}
    ]},
    {"assay": "as §1", "format": "physicochemical", "conditions": "read-out: logP", "values": [
      {"smiles": "O=C(/C=C/c1ccc(O)cc1)CC(=O)/C=C/c1ccc(O)cc1", "note": "[BISDEMETHOXYCURCUMIN]", "logP": 0.85},
      {"smiles": "CC1=C[C@H](O)CC(C)(C)[C@H]1/C=C/C(C)=C/C=C/C(C)=C/C=C/C=C(C)/C=C/C=C(C)/C=C/C1=C(C)C[C@@H](O)CC1(C)C", "note": "[LUTEIN]", "logP": 3.89},
      {"smiles": "O=C(O[C@@H]1Cc2c(O)cc(O)cc2O[C@@H]1c1cc(O)c(O)c(O)c1)c1cc(O)c(O)c(O)c1", "note": "[EPIGALOCATECHIN GALLATE]", "logP": 0.09},
      {"smiles": "C[C@@H]1O[C@@H](O[C@H]2[C@H](Oc3cc(O)c4c(c3)O[C@H](c3ccc(O)cc3)CC4=O)O[C@H](CO)[C@@H](O)[C@@H]2O)[C@H](O)[C@H](O)[C@H]1O", "note": "[NARINGIN]", "logP": -0.15},
      {"smiles": "COc1ccc([C@@H]2CC(=O)c3c(O)cc(O[C@@H]4O[C@H](CO[C@@H]5O[C@@H](C)[C@H](O)[C@@H](O)[C@H]5O)[C@@H](O)[C@H](O)[C@H]4O)cc3O2)cc1O", "note": "[HESPERIDIN]", "logP": -0.21},
      {"smiles": "O=C(O[C@@H]1Cc2c(O)cc(O)cc2O[C@H]1c1cc(O)c(O)c(O)c1)c1cc(O)c(O)c(O)c1", "note": "[GALLOCATECHIN GALLATE]", "logP": 0.12},
      {"smiles": "Oc1cc(O)c2c(c1)O[C@H](c1cc(O)c(O)c(O)c1)[C@H](O)C2", "note": "[EPIGALLOCATECHIN]", "logP": 0.13},
      {"smiles": "Oc1cc(O)c2c(c1)O[C@H](c1ccc(O)c(O)c1)[C@@H](O)C2", "note": "[CIANIDANOL]", "logP": 0.53},
      {"smiles": "COc1cc(/C=C/C(O)=C/C(=O)/C=C/c2ccc(O)cc2)ccc1O", "note": "[DEMETHOXYCURCUMIN]", "logP": 1},
      {"smiles": "CC1=C(/C=C/C(C)=C/C=C/C(C)=C/C=C/C=C(C)/C=C/C=C(C)/C=C/C2=C(C)CCCC2(C)C)C(C)(C)CCC1", "note": "[BETA CAROTENE]", "logP": 4.19},
      {"smiles": "CC(C)=CCC1=C(O)C(C(=O)C(C)C)=C(O)[C@](O)(CC=C(C)C)C1=O", "logP": 2.92},
      {"smiles": "O=C(O[C@@H]1Cc2c(O)cc(O)cc2O[C@@H]1c1ccc(O)c(O)c1)c1cc(O)c(O)c(O)c1", "note": "[EPICATECHIN GALLATE]", "logP": 0.07},
      {"smiles": "Oc1cc(O)c2c(c1)O[C@H](c1ccc(O)c(O)c1)[C@H](O)C2", "note": "[(-)-EPICATECHIN]", "logP": 0.67},
      {"smiles": "CC(C)=CCC1=C(O)C(C(=O)CC(C)C)=C(O)[C@](O)(CC=C(C)C)C1=O", "logP": 3.01}
    ]}
  ]
}
